{"source": "patent US20260132165A1", "about": "“MODIFIED NUCLEOSIDE ANALOGUE AND USE THEREOF, AND NUCLEOSIDE ANALOGUE-CONTAINING DOUBLE-STRANDED OLIGONUCLEOTIDE AND USE THEREOF” (RIGERNA THERAPEUTICS (BEIJING) CO., LTD., priority 2023, published 2026)", "key": {"SOD1": {"system": "SOD1", "test": "Test Example 2: inhibitory activity of NM031 conjugated siRNA on SOD1 by intrathecal administration to mice", "format": "in vivo, C57BL/6j mice", "conditions": "intrathecal, 800 μg per mouse, D9", "description": "6-8 Week-old C57BL/6j mice were randomly grouped into 4 groups by body weight. PBS group was dosed with siRNA-free PBS solution, RX899001 group was dosed with siRNA compound RX899001 without vector conjugation, RZ899001 group was dosed with siRNA RZ899001 (the sense strand with the Uhd conjugation at Position 4) prepared in Example 1, and RZ899008 was dosed with siRNA RZ899008 (the sense strand with the NM031 conjugation at Position 4) prepared in Example 1. Mices in each group were anesthetized with isoflurane. After anesthetization, lumbar region thereof was sprayed wet with 75% disinfecting alcohol. 10 μL (concentration […]) of siRNA drug containing PBS solvent was sucked with an insulin injection needle, the mouse lumbar region was pinched with the left-hand index finger and thumb, patella crest was propped against, and needle was held by the right hand. The needle was bent by forceps in advance, wherein the needle was first bent in the middle by 80° to 90°, then a front half part of the needle was bent in half, and the whole needle was bent in an are shape of about 60° to 90°. Mouse abdominal region was padded with an article with a thickness of about 2 cm. The needle was inserted from a joint of lumbar spines L5 and L6 of mice, and when inserting the needle, the hand was slightly inclined forwards to insert the needle. […] After completion of the injection, the needle was slowly withdrawn at uniform velocity. The administration dose to each mouse in RX899001 group, RZ899001 group and RZ899008 group was 800 μg, a total volume injected was 10 μL, and the PBS group was administered with the same volume of siRNA-free PBS solution. After the animals woke up, the animals were returned back to the animal feeding room and further fed. The day of administration was recorded as first day (D1), and the mice were sacrificed on ninth day (D9). Lumbar spine, thoracic spine and cerebellum were respectively taken and stored in the RNAlater.\nRNA extraction: an appropriate amount of lumbar spine, thoracic spine and cerebellum samples were respectively taken out from the RNAlater, and smashed for 60 s in Tissuelyser type II full-automatic tissue homogenizer, and total RNAs of various tissue samples were extracted using the full-automatic nucleic acid extraction instrument and the nucleic acid extraction kit from Zhejiang Hanwei Science and Technology Co. Ltd. according to methods described in instructions. Reverse transcription reaction: 1 μg of the extracted total RNAs of various tissue samples were respectively taken, and configured into 20 μL of reverse transcription system according to a method described in kit instructions by using a reverse transcription kit (Reverse Transcription System, A3500) from Promega Corporation and selecting Oligo (dT)15 reverse transcription primers, and the reverse transcription reaction was completed. After the reaction was ended, 80 μL of RNase-Free water was added into the reverse transcription system to provide cDNA solution for Real-time PCR detection.\nReal-time PCR detection: 20 μL of Real-time PCR reaction system per PCR detection well was configured according to a method described in kit instructions using SYBR™ Select Master Mix (Catalog number: 4472908) reagent from ABI company. Each detection system contained 5 μL of cDNA template obtained from the above reverse transcription reaction, 10 μL of SYBR™ Select Master Mix, 0.5 μL of 10 μM upstream primers, 0.5 μL of 10 μM downstream primers (see TABLE 5 for primer information), and 4 μL of RNase-Free H2O. The configured reaction system was subjected to Real-time PCR amplification on ABI StepOnePlus PCR instrument by a three-step method, wherein an amplification procedure was pre-denaturation at 95° C. for 10 min, then denaturation at 95° C. for 30 s, annealing at 60° C. for 30 s, and extension at 72° C. for 30 s; and processes of denaturation, annealing, and extension were repeated for 40 cycles. […]"}, "target gene SOD1": {"system": "target gene SOD1", "test": "Test Example 3: inhibitory activity of lipid conjugated siRNA sequences on SOD1 by lateral ventricle administration to mice", "format": "in vivo, C57BL/6j mice", "conditions": "200 μg per mouse, D5", "description": "6-8 Week-old C57BL/6j mice were randomly grouped by body weight. Mice in each group were administered with siRNA by lateral ventricle administration, with an administration dose per mouse depending on a specific test. Taking Bregma in mouse brain as point 0 (origin), coordinates of right ventricle were found using the cerebral stereotaxic apparatus and position was marked on surface of skull (position of lateral ventricle was AP (anteroposterior, bregma anterior and posterior): −0.58 mm, ML (mediolateral, left and right of middle raphe): −1.2 mm, DV (dorsoventral, up and down cerebral dura mater plane): −2.2 mm). A dental electric drill was used to drill in the skull above a position of interest, and then medicament was injected into the lateral ventricle by a micro-dosing pump, wherein a total injection volume was 5 μL, and injection duration was 10 min. Needle was retained for 5 min after completion of injection, and then slowly withdrawn. Afterwards, needle hole was sealed with biomedical glue, and then head skin was adhered. After animals woke up, the animals were returned back to animal house and further fed. PBS control group was administered with the same volume of siRNA-free PBS solution. The day of administration was recorded as 0 day (D0), and the mice were sacrificed at observation point after the administration. Different parts of brain region were respectively taken and stored in the RNAlater.\nRNA extraction: the above tissue samples were taken out from the RNAlater, and smashed for 60 s in Tissuelyser type II full-automatic tissue homogenizer, and total RNAs of various tissue samples were extracted using the full-automatic nucleic acid extraction instrument and the nucleic acid extraction kit from Zhejiang Hanwei Science and Technology Co. Ltd. according to methods described in instructions.\nReverse transcription reaction: 1 μg of the extracted total RNAs of the tissue samples were taken, and configured into 20 μL of reverse transcription system according to a method described in kit instructions by using a reverse transcription kit (Reverse Transcription System, A3500) from Promega Corporation and selecting Oligo (dT)15 reverse transcription primers, and the reverse transcription reaction was completed. After the reaction was ended, 80 μL of RNase-Free water was added into the reverse transcription system to provide cDNA solution for Real-time PCR detection.\nReal-time PCR detection: 20 μL of Real-time PCR reaction system per PCR detection well was configured according to a method described in kit instructions using SYBR™ Select Master Mix (Catalog number: 4472908) reagent from ABI company. Each detection system contained 5 μL of cDNA template obtained from the above reverse transcription reaction, 10 μL of SYBR™ Select Master Mix, 0.5 μL of 10 μM upstream primers, 0.5 μL of 10 μM downstream primers, and 4 μL of RNase-Free H2O. The configured reaction system was subjected to Real-time PCR amplification on ABI StepOnePlus PCR instrument by a three-step method, wherein an amplification procedure was pre-denaturation at 95° C. for 10 min, then denaturation at 95° C. for 30 s, annealing at 60° C. for 30 s, and extension at 72° C. for 30 s; and processes of denaturation, annealing, and extension were repeated for 40 cycles. Gene expression differences were calculated by the ΔΔCt method after completion of the procedure.\nIn the real-time fluorescence quantitative PCR method, relative quantitative calculation of remaining expression level and inhibition rate of gene mRNA of interest in various test groups was performed by the ΔΔCt method, and the calculation method is as follows: […]"}}, "note": "Strand notation (5' to 3'): a small letter for the sugar, then the base; units joined by * are phosphorothioate-linked, units joined directly phosphodiester-linked; [ ] holds rarer units or linkages, { } end groups; capitals alone tell only the bases. m = 2'-O-methyl; f = 2'-fluoro"}
{"substance": "RX899001: siRNA compound without vector conjugation, SOD1 sequence; sense SEQ ID NO: 1, antisense SEQ ID NO: 2 (sense mU*mU*mUmUmAmAfUfCfCmUmCmAmCmUmCmUmAmAmA; antisense mU*fU*mUmAmGfAmGmUmGmAmGmGmAfUmUfAmAmAmA*mU*mG) [reference compound]", "values": [{"measurement": "Cerebellum Mean value of inhibition rate %", "setting": "SOD1", "value": 14.01, "unit": "%"}, {"measurement": "Lumbar spine Mean value of inhibition rate %", "setting": "SOD1", "value": 7.54, "unit": "%"}, {"measurement": "Thoracic spine Mean value of inhibition rate %", "setting": "SOD1", "value": 41.98, "unit": "%"}]}
{"substance": "RZ899001: control siRNA, the sense strand with the Uhd conjugation at Position 4; SEQ ID NO: 4 / 2 (sense UUUNAAUCCUCACUCUAAA; antisense UUUAGAGUGAGGAUUAAAAUG; Uhd conjugate at sense position 4; modified_base 1..2 OTHER; 2'-methoxy and 5'-thiophosphate modified nucleotides; modified_base 3 OTHER; 2'-methoxy modified nucleotide; modified_base 4 OTHER; n is the synthetic nucleotide analog Uhd as described in the disclosure.; modified_base 5..6 OTHER; 2'-methoxy modified nucleotides; modified_base 7..9 OTHER; 2'-fluoro modified nucleotides; modified_base 10..19 OTHER; 2'-methoxy modified nuc; modified_base 1 OTHER; 2'-methoxy and 5'-thiophosphate modified nucleotide; modified_base 2 OTHER; 2'-fluoro and 5'-thiophosphate modified nucleotide; …) [reference compound]", "values": [{"measurement": "Cerebellum Mean value of inhibition rate %", "setting": "SOD1", "value": 60.22, "unit": "%"}, {"measurement": "Lumbar spine Mean value of inhibition rate %", "setting": "SOD1", "value": 64.13, "unit": "%"}, {"measurement": "Thoracic spine Mean value of inhibition rate %", "setting": "SOD1", "value": 60.27, "unit": "%"}]}
{"substance": "RZ899052: siRNA, the sense strand with the NM058 conjugation at Position 5; SEQ ID NO: 5 / 22 (sense UUUUNAUCCUCACUCUAAA; antisense UUUAGAGUGAGGAUUAAAAUG; NM058 conjugate at sense position 5; modified_base 1..2 OTHER; 2'-methoxy and 5'-thiophosphate modified nucleotides; modified_base 3..4 OTHER; 2'-methoxy modified nucleotides; modified_base 5 OTHER; n is the synthetic nucleotide analog NM058 as described in the disclosure(e.g., NM058-1 (1N-(9-[(2S,5R)-5-{[bis(4-methoxyphenyl)(phenyl)methoxy]methyl}-3,4-dihydroxytetrahydrofuran-2-yl]-9H-purin-6-yl)benzamide)).; modified_base 6 OTHER; modified_base 1 OTHER; 2'-methoxy and 5'-thiovinylphosphonate modified nucleotide; modified_base 2 OTHER; 2'-fluoro and 5'-thiophosphate modified nucleotide; …)", "values": [{"measurement": "Cerebellum Mean value of inhibition rate %", "setting": "target gene SOD1", "value": 53.02, "unit": "%"}, {"measurement": "Cortex Mean value of inhibition rate %", "setting": "target gene SOD1", "value": 62.93, "unit": "%"}, {"measurement": "Hippocampus Mean value of inhibition rate %", "setting": "target gene SOD1", "value": 87.35, "unit": "%"}]}
{"substance": "RZ899053: siRNA, the sense strand with the NM058 conjugation at Position 6; SEQ ID NO: 6 / 22 (sense UUUUANUCCUCACUCUAAA; antisense UUUAGAGUGAGGAUUAAAAUG; NM058 conjugate at sense position 6; modified_base 1..2 OTHER; 2'-methoxy and 5'-thiophosphate modified nucleotides; modified_base 3..5 OTHER; 2'-methoxy modified nucleotides; modified_base 6 OTHER; n is the synthetic nucleotide analog NM058 as described in the disclosure(e.g., NM058-1 (1N-(9-[(2S,5R)-5-{[bis(4-methoxyphenyl)(phenyl)methoxy]methyl}-3,4-dihydroxytetrahydrofuran-2-yl]-9H-purin-6-yl)benzamide)).; modified_base 7..9 OTHE; modified_base 1 OTHER; 2'-methoxy and 5'-thiovinylphosphonate modified nucleotide; modified_base 2 OTHER; 2'-fluoro and 5'-thiophosphate modified nucleotide; …)", "values": [{"measurement": "Cerebellum Mean value of inhibition rate %", "setting": "target gene SOD1", "value": 42.55, "unit": "%"}, {"measurement": "Cortex Mean value of inhibition rate %", "setting": "target gene SOD1", "value": 55.87, "unit": "%"}, {"measurement": "Hippocampus Mean value of inhibition rate %", "setting": "target gene SOD1", "value": 74.13, "unit": "%"}]}
